Some test systems named below: T-47D breast; RXF 393 renal; BT-549 breast; A549 NSCLC; MCF7 breast; HCT-116 colon; SNB-75 CNS; COLO 205 colon; UO-31 renal; SN12C renal.
Assay in all cases: NCI anticancer screen, dose series, 48 h

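Dose response: 5 concentrations. Exposure: 48 h. Format: 96-well plates. Endpoint: linear interpolation; highest concentration if not reached. GI50: concentration for 50% inhibition of growth. TGI denotes the concentration required for complete inhibition of growth.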 Bounds are passed on as bounds.

Consider `C=CCN1CC(=O)N2[C@@H](Cc3ccc(O)cc3F)C(=O)N(Cc3cccc(N4CC(N5CCN(CC)CC5)C4)n3)C[C@@H]2N1C(=O)NCc1ccccc1`, for which the GI50 in the assay with T-47D breast was 0.0339 µM; in the assay on RXF 393 renal, 0.231 µM; with BT-549 breast, 0.111 µM; in the assay on A549 NSCLC, 0.0412 µM; with MCF7 breast, 0.524 µM; with HCT-116 colon, 0.0325 µM. The GI50 in the assay on SNB-75 CNS was 0.017 µM; in the assay on COLO 205 colon, 0.028 µM; in the assay with UO-31 renal it was 0.919 µM; in the assay on SN12C renal, 0.111 µM. For the same compound, the TGI is above 100 µM in the assay on T-47D breast; 6.85 µM in the assay on RXF 393 renal; above 54.1 µM with BT-549 breast; above 100 µM in the assay with A549 NSCLC; above 100 µM in the assay with MCF7 breast; above 100 µM in the assay on HCT-116 colon. Moreover, the TGI in the assay with SNB-75 CNS is 0.131 µM; with COLO 205 colon, 0.262 µM; in the assay on UO-31 renal, above 100 µM; with SN12C renal it was above 100 µM.

With `O=C(O)CCC(=O)c1ccc2sc3ccccc3c2c1`, the TGI with T-47D breast, with RXF 393 renal, with BT-549 breast, in the assay with A549 NSCLC, in the assay with MCF7 breast and in the assay on HCT-116 colon was above 100 µM in each case. The TGI with SNB-75 CNS, in the assay on COLO 205 colon, with UO-31 renal and with SN12C renal was above 100 µM throughout.

As for `N#CCN1CCn2c1nsc2=S`, the GI50 was above 100 µM with T-47D breast; above 100 µM in the assay with RXF 393 renal; above 100 µM in the assay on BT-549 breast; above 100 µM in the assay with A549 NSCLC; 55.3 µM in the assay with MCF7 breast; above 100 µM in the assay with HCT-116 colon. Also, the GI50 with SNB-75 CNS is above 100 µM; in the assay on COLO 205 colon, 85.5 µM; in the assay with UO-31 renal, 44.8 µM; with SN12C renal it was above 100 µM. Besides, the TGI with T-47D breast, in the assay with RXF 393 renal, with BT-549 breast, in the assay on A549 NSCLC, in the assay on MCF7 breast and with HCT-116 colon was above 100 µM each time. Moreover, the TGI in the assay with SNB-75 CNS, with COLO 205 colon, in the assay on UO-31 renal and in the assay on SN12C renal was above 100 µM each time.

For the compound `Cn1cc(C2=C(c3cccc(OC[C@@H](O)CO)c3)C(=O)NC2=O)c2ccccc21`, the GI50 in the assay with T-47D breast was above 22.9 µM; with RXF 393 renal it was 2.08 µM; in the assay with BT-549 breast it was 12.3 µM; in the assay with A549 NSCLC, above 25 µM; in the assay on MCF7 breast it was 2.07 µM; in the assay with HCT-116 colon, above 15.8 µM. Besides, the GI50 in the assay on SNB-75 CNS is 0.0944 µM; in the assay on COLO 205 colon it was above 18.3 µM; in the assay with UO-31 renal, above 19.1 µM; in the assay with SN12C renal, above 23 µM. The TGI with T-47D breast, in the assay on RXF 393 renal, in the assay with BT-549 breast, in the assay with A549 NSCLC, in the assay with MCF7 breast and in the assay on HCT-116 colon was above 25 µM each time. In addition, the TGI in the assay on SNB-75 CNS, in the assay on COLO 205 colon, with UO-31 renal and in the assay on SN12C renal was above 25 µM throughout.

For `C#CCNC(=O)[C@H](CC)[C@H]1CC[C@H](C)[C@H]([C@@H](C)[C@H](O)[C@H](C)C(=O)[C@H](CC)C2O[C@]3(C=CC(=O)[C@]4(CC[C@@](C)([C@H]5CC[C@](O)(CC)[C@H](C)O5)O4)O3)[C@H](C)C[C@@H]2C)O1` (stereo not given in full), the GI50 in the assay on T-47D breast was 2.36 µM; with RXF 393 renal, 2.48 µM; in the assay on BT-549 breast, 1.83 µM; in the assay with A549 NSCLC, 2.61 µM; in the assay on MCF7 breast, 2.67 µM; in the assay on HCT-116 colon, 2.43 µM. The GI50 in the assay with SNB-75 CNS is 1.39 µM; in the assay on COLO 205 colon it was 1.84 µM; in the assay on UO-31 renal, 2.01 µM; with SN12C renal, 2.29 µM. For the same compound, the TGI stood at 9 µM in the assay with T-47D breast; 7.63 µM in the assay on RXF 393 renal; 3.93 µM with BT-549 breast; 11.2 µM in the assay on A549 NSCLC; 12.2 µM with MCF7 breast; 7.66 µM in the assay with HCT-116 colon. In addition, the TGI with SNB-75 CNS was 3.36 µM; with COLO 205 colon, 3.52 µM; in the assay with UO-31 renal it was 7.81 µM; in the assay with SN12C renal it was 6.58 µM.

For the compound `O=C(O)c1cccc(C(=O)O)c1S(=O)Cc1ccccc1` (stereo not given), the TGI in the assay on T-47D breast, in the assay on RXF 393 renal, in the assay on BT-549 breast, with A549 NSCLC, in the assay with MCF7 breast and in the assay on HCT-116 colon was above 100 µM each time. In addition, the TGI in the assay with SNB-75 CNS, with COLO 205 colon, with UO-31 renal and with SN12C renal was above 100 µM each time.

On to `O=C1c2sccc2-c2cccc3cccc1c23` (tested in a mixture with another compound), for which the TGI is 28.2 µM in the assay on T-47D breast; above 100 µM with RXF 393 renal; 25.7 µM in the assay on BT-549 breast; 16.8 µM in the assay on A549 NSCLC; above 100 µM with MCF7 breast; above 100 µM with HCT-116 colon. Besides, the TGI in the assay on SNB-75 CNS came to 37.3 µM; in the assay on COLO 205 colon, 15.6 µM; in the assay with UO-31 renal it was 78.3 µM; with SN12C renal, 89.4 µM.

For `COc1ccc(/C=C(\C#N)n2nnc3c(F)cccc32)cc1`, the GI50 in the assay with T-47D breast was 1.05 µM; in the assay on RXF 393 renal it was 0.182 µM; in the assay on BT-549 breast it was 0.433 µM; in the assay on A549 NSCLC, 0.78 µM; in the assay on MCF7 breast, 0.715 µM; with HCT-116 colon it was 0.363 µM. The GI50 with SNB-75 CNS was 0.17 µM; in the assay on COLO 205 colon, 0.38 µM; with UO-31 renal it was 0.573 µM; with SN12C renal it was 0.585 µM. The TGI with T-47D breast was above 100 µM; in the assay with RXF 393 renal, 0.572 µM; in the assay with BT-549 breast, above 34.6 µM; with A549 NSCLC it was above 100 µM; in the assay on MCF7 breast, above 100 µM; with HCT-116 colon, above 31.6 µM. The TGI is 0.517 µM in the assay on SNB-75 CNS, above 100 µM in the assay on COLO 205 colon, above 100 µM in the assay on UO-31 renal and above 100 µM in the assay on SN12C renal.

For the origin of these results see PubChem BioAssay (NCI).
